Results: BindingDB's records for doi:10.1016/j.bmcl.2004.10.029 (Glaxosmithkline, 2005)

Experiments:
[1] = biological target: T1, Dimer of Gag-Pol polyprotein [501-599,Q508K,L534I,L564I,C568A,C596A] (Human immunodeficiency virus 1, UniProt P03367, C568A/C596A/L534I/L564I/Q508K); experiment: Protease Inhibition Assay; details: pH 6.4; 25 °C
T1 construct: 501-599
Experimental: The Ki values were determined using fluorogenic substrate, 2-(aminobenzoyl)-Thr-Ile-Nle-Phe(p-NO2)-Gln-ArgNH2. A standard curve relating changes in fluorescent intensity to changes in concentration of product was used to convert fluorescent changes into molar velocities. The amount of cleavage was determined by HPLC.

[2] = biological target: T1, Dimer of Gag-Pol polyprotein [501-599,Q508K,L534I,L564I,C568A,C596A]; experiment: Protease Inhibition Assay; details: pH 6.4; 25 °C; remark: listed apart in the source

| Compound | Ki [1] [nM] | IC50 [2] [nM] |
| --- | --- | --- |
| O=C(N[C@H]1c2ccccc2C[C@H]1O)[C@H](Cc1ccc(OCCOC(=O)N2CCOCC2)cc1)C[C@H](O)CN1C(=O)[C@@H](Cc2ccccc2)C[C@@H]1Cc1ccccc1 [2-{4-[(2R)-2-[(2S)-3-[(3S,5R)-3,5-dibenzyl-2-oxopyrrolidin-1-yl]-2-hydroxypropyl]-2-{[(1S,2R)-2-hydroxy-2,3-dihydro-1H-inden-1-yl]carbamoyl}ethyl]phenoxy}ethyl morpholine-4-carboxylate] | 0.05 | 240 |
| O=C(N[C@H]1c2ccccc2C[C@H]1O)[C@H](Cc1ccc(Cc2ccccc2)cc1)C[C@H](O)CN1C(=O)[C@@H](Cc2ccccc2)C[C@@H]1Cc1ccccc1 [(2R,4S)-2-[(4-benzylphenyl)methyl]-5-[(3S,5R)-3,5-dibenzyl-2-oxopyrrolidin-1-yl]-4-hydroxy-N-[(1S,2R)-2-hydroxy-2,3-dihydro-1H-inden-1-yl]pentanamide] | 0.11 | 920 |
| O=C(N[C@H]1c2ccccc2C[C@H]1O)[C@H](Cc1ccccc1)C[C@H](O)CN1C(=O)[C@@H](Cc2ccccc2)C[C@@H]1Cc1ccc(Cc2ccccc2)cc1 [(2R,4S)-2-benzyl-5-[(3S,5R)-3-benzyl-5-[(4-benzylphenyl)methyl]-2-oxopyrrolidin-1-yl]-4-hydroxy-N-[(1S,2R)-2-hydroxy-2,3-dihydro-1H-inden-1-yl]pentanamide] | 0.13 | 550 |
| O=C(N[C@H]1c2ccccc2C[C@H]1O)[C@H](Cc1ccccc1)C[C@H](O)CN1C(=O)[C@@H](Cc2ccccc2)C[C@@H]1Cc1ccc(O)cc1 [(2R,4S)-2-benzyl-5-[(3S,5R)-3-benzyl-5-[(4-hydroxyphenyl)methyl]-2-oxopyrrolidin-1-yl]-4-hydroxy-N-[(1S,2R)-2-hydroxy-2,3-dihydro-1H-inden-1-yl]pentanamide] |  | 200 |
| O=C(N[C@H]1c2ccccc2C[C@H]1O)[C@H](Cc1ccccc1)C[C@H](O)CN1C(=O)[C@@H](Cc2ccccc2)C[C@@H]1Cc1ccc(OCCO)cc1 [(2R,4S)-2-benzyl-5-[(3S,5R)-3-benzyl-5-{[4-(2-hydroxyethoxy)phenyl]methyl}-2-oxopyrrolidin-1-yl]-4-hydroxy-N-[(1S,2R)-2-hydroxy-2,3-dihydro-1H-inden-1-yl]pentanamide] | 0.3 | 480 |
| NC(=O)COc1ccc(C[C@H](C[C@H](O)CN2C(=O)[C@@H](Cc3ccccc3)C[C@@H]2Cc2ccccc2)C(=O)N[C@H]2c3ccccc3C[C@H]2O)cc1 [(2R,4S)-2-{[4-(carbamoylmethoxy)phenyl]methyl}-5-[(3S,5R)-3,5-dibenzyl-2-oxopyrrolidin-1-yl]-4-hydroxy-N-[(1S,2R)-2-hydroxy-2,3-dihydro-1H-inden-1-yl]pentanamide] | 0.07 | 360 |
| COCCOCCOc1ccc(C[C@H](C[C@H](O)CN2C(=O)[C@@H](Cc3ccccc3)C[C@@H]2Cc2ccccc2)C(=O)N[C@H]2c3ccccc3C[C@H]2O)cc1 [(2R,4S)-5-[(3S,5R)-3,5-dibenzyl-2-oxopyrrolidin-1-yl]-4-hydroxy-N-[(1S,2R)-2-hydroxy-2,3-dihydro-1H-inden-1-yl]-2-({4-[2-(2-methoxyethoxy)ethoxy]phenyl}methyl)pentanamide] | 0.02 | 93 |
| CN1CCN(C(=O)COc2ccc(C[C@H](C[C@H](O)CN3C(=O)[C@@H](Cc4ccccc4)C[C@@H]3Cc3ccccc3)C(=O)N[C@H]3c4ccccc4C[C@H]3O)cc2)CC1 [(2R,4S)-5-[(3S,5R)-3,5-dibenzyl-2-oxopyrrolidin-1-yl]-4-hydroxy-N-[(1S,2R)-2-hydroxy-2,3-dihydro-1H-inden-1-yl]-2-({4-[2-(4-methylpiperazin-1-yl)-2-oxoethoxy]phenyl}methyl)pentanamide] | 0.05 | 130 |
| O=C(N[C@H]1c2ccccc2C[C@H]1O)[C@H](Cc1ccc(OCC(=O)N2CCOCC2)cc1)C[C@H](O)CN1C(=O)[C@@H](Cc2ccccc2)C[C@@H]1Cc1ccccc1 [(2R,4S)-5-[(3S,5R)-3,5-dibenzyl-2-oxopyrrolidin-1-yl]-4-hydroxy-N-[(1S,2R)-2-hydroxy-2,3-dihydro-1H-inden-1-yl]-2-({4-[2-(morpholin-4-yl)-2-oxoethoxy]phenyl}methyl)pentanamide] | 0.02 | 63 |
| O=C(N[C@H]1c2ccccc2C[C@H]1O)[C@H](Cc1ccc(OCCN2CCOCC2)cc1)C[C@H](O)CN1C(=O)[C@@H](Cc2ccccc2)C[C@@H]1Cc1ccccc1 [(2R,4S)-5-[(3S,5R)-3,5-dibenzyl-2-oxopyrrolidin-1-yl]-4-hydroxy-N-[(1S,2R)-2-hydroxy-2,3-dihydro-1H-inden-1-yl]-2-({4-[2-(morpholin-4-yl)ethoxy]phenyl}methyl)pentanamide] | 0.14 | 83 |
| O=C(N[C@H]1c2ccccc2C[C@H]1O)[C@H](Cc1ccc(O)cc1)C[C@H](O)CN1C(=O)[C@@H](Cc2ccccc2)C[C@@H]1Cc1ccccc1 [(2R,4S)-5-[(3S,5R)-3,5-dibenzyl-2-oxopyrrolidin-1-yl]-4-hydroxy-N-[(1S,2R)-2-hydroxy-2,3-dihydro-1H-inden-1-yl]-2-[(4-hydroxyphenyl)methyl]pentanamide] | 0.06 | 320 |
| O=C(N[C@H]1c2ccccc2C[C@H]1O)[C@H](Cc1ccc(OCCO)cc1)C[C@H](O)CN1C(=O)[C@@H](Cc2ccccc2)C[C@@H]1Cc1ccccc1 [(2R,4S)-5-[(3S,5R)-3,5-dibenzyl-2-oxopyrrolidin-1-yl]-4-hydroxy-N-[(1S,2R)-2-hydroxy-2,3-dihydro-1H-inden-1-yl]-2-{[4-(2-hydroxyethoxy)phenyl]methyl}pentanamide] | 0.02 | 94 |
| O=C(N[C@H]1c2ccccc2C[C@H]1O)[C@H](Cc1ccc(OCc2ccccn2)cc1)C[C@H](O)CN1C(=O)[C@@H](Cc2ccccc2)C[C@@H]1Cc1ccccc1 [(2R,4S)-5-[(3S,5R)-3,5-dibenzyl-2-oxopyrrolidin-1-yl]-4-hydroxy-N-[(1S,2R)-2-hydroxy-2,3-dihydro-1H-inden-1-yl]-2-{[4-(pyridin-2-ylmethoxy)phenyl]methyl}pentanamide] | 0.07 | 380 |
| O=C(N[C@H]1c2ccccc2C[C@H]1O)[C@H](Cc1ccccc1)C[C@H](O)CN1C(=O)[C@@H](Cc2ccccc2)C[C@@H]1Cc1ccc(OCCN2CCOCC2)cc1 [pyrrolidinone based inhibitor 1g] | 1.3 | 960 |
| O=C(N[C@H]1c2ccccc2C[C@H]1O)[C@H](Cc1ccccc1)C[C@H](O)CN1C(=O)[C@@H](Cc2ccccc2)C[C@@H]1Cc1ccc(OCC(=O)N2CCOCC2)cc1 [pyrrolidinone based inhibitor 1k] | 0.1 | 200 |
| O=C(N[C@H]1c2ccccc2C[C@H]1O)[C@H](Cc1ccccc1)C[C@H](O)CN1C(=O)[C@@H](Cc2ccccc2)C[C@@H]1Cc1ccccc1 [pyrrolidinone scaffold 8b] |  | 0.05 |
